# Measurements published in ChEMBL document CHEMBL1201862, “PubChem BioAssay data set” (2004).
# “And” between values parts separate entries of the source, which are not always exact repeats. Equal entries are not always repeated.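 Where inhibition never reached the appropriate level, the endpoint shown equals the highest concentration tested. Otherwise, values were interpolated linearly from a five-concentration, 48-hour dose response in 96-well plates. GI50 is the concentration that inhibits growth by half.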 The source made the active and inactive calls. Cut-off read from the data, not from the text of the source: active = GI50 up to about 1.1 µM and inactive = higher.
# Tests used:
# Assay in all cases: NCI-60 cell line screen, 48 h
# LXFL 529 = test system: LXFL 529
# NCI-H522 = test system: NCI-H522
# OVCAR-3 = test system: OVCAR-3
# LOX IMVI = test system: LOX IMVI
# DMS-273 = test system: DMS-273
# M19-MEL = test system: M19-MEL
# XF498 = test system: XF498
# M14 = test system: M14
# NCI/ADR-RES = test system: NCI/ADR-RES
# PC-3 = test system: PC-3
# SNB-78 = test system: SNB-78
# DMS-114 = test system: DMS-114
# HOP-92 = test system: HOP-92
# DLD-1 = test system: DLD-1
# MOLT-4 = test system: MOLT-4
# COLO 205 = test system: COLO 205
# HCT-15 = test system: HCT-15
# TK-10 = test system: TK-10
# MCF7 = test system: MCF7
# BT-549 = test system: BT-549
# IGROV-1 = test system: IGROV-1
# MDA-MB-435 = test system: MDA-MB-435
# NCI-H460 = test system: NCI-H460
# SW-620 = test system: SW-620
# NCI-H23 = test system: NCI-H23
# OVCAR-5 = test system: OVCAR-5
# CCRF-CEM = test system: CCRF-CEM
# SK-MEL-28 = test system: SK-MEL-28
# UACC-257 = test system: UACC-257
# HOP-62 = test system: HOP-62
# HT-29 = test system: HT-29
# SNB-19 = test system: SNB-19
# UO-31 = test system: UO-31
# Hs-578T = test system: Hs-578T
# K562 = test system: K562
# SF-268 = test system: SF-268
# HCC 2998 = test system: HCC 2998
# T47D = test system: T47D
# HL-60 = test system: HL-60
# U-251 = test system: U-251
# KM12 = test system: KM12
# SR = test system: SR
# ACHN = test system: ACHN
# 786-0 = test system: 786-0
# Malme-3M = test system: Malme-3M
# MDA-N = test system: MDA-N
# OVCAR-4 = test system: OVCAR-4
# SK-MEL-2 = test system: SK-MEL-2
# RPMI-8226 = test system: RPMI-8226
# DU-145 = test system: DU-145
# SK-OV-3 = test system: SK-OV-3
# A498 = test system: A498
# A549 = test system: A549
# CAKI-1 = test system: CAKI-1
# SNB-75 = test system: SNB-75
# SF-539 = test system: SF-539
# OVCAR-8 = test system: OVCAR-8
# SK-MEL-5 = test system: SK-MEL-5
# HCT-116 = test system: HCT-116
# MDA-MB-231 = test system: MDA-MB-231
# RXF 393 = test system: RXF 393
# UACC-62 = test system: UACC-62
# SF-295 = test system: SF-295
# EKVX = test system: EKVX
# SN12C = test system: SN12C
# NCI-H226 = test system: NCI-H226
structure (smiles),measurement,setting,value
CCC1(O)CC(OC2CC(N(C)C)C(OC3CC4OC5CC(=O)C(C)OC5OC4C(C)O3)C(C)O2)c2c(cc3c(c2O)C(=O)c2c(O)ccc(O)c2C3=O)C1C(=O)OC (stereo not drawn),GI50,LXFL 529,> 0.01 µM (active)
same,GI50,NCI-H522,0.00224 µM (active)
same,GI50,OVCAR-3,> 10 nM (active) and 5.92 nM (active)
same,GI50,LOX IMVI,0.000953 µM (active)
same,GI50,DMS-273,0.00365 µM (active)
same,GI50,M19-MEL,0.00887 µM (active)
same,GI50,XF498,0.00828 µM (active)
same,GI50,M14,> 10 nM (active) and 5.62 nM (active)
same,GI50,NCI/ADR-RES,0.00479 µM (active)
same,GI50,PC-3,0.00315 µM (active)
same,GI50,SNB-78,0.0166 µM (active)
same,GI50,DMS-114,0.00575 µM (active)
same,GI50,HOP-92,0.00624 µM (active)
same,GI50,DLD-1,0.00792 µM (active)
Cc1c(-c2nc(N)nc(C3CC3)c2C)nc(N)nc1C1CC1,GI50,MOLT-4,> 100 µM (inactive)
same,GI50,NCI-H522,> 100 µM (inactive)
same,GI50,COLO 205,> 100 µM (inactive)
same,GI50,HCT-15,> 100 µM
same,GI50,TK-10,> 100 µM (inactive)
same,GI50,MCF7,> 100 µM (inactive)
same,GI50,OVCAR-3,> 100 µM (inactive)
same,GI50,BT-549,> 100 µM (inactive)
same,GI50,IGROV-1,> 100 µM (inactive)
same,GI50,MDA-MB-435,> 100 µM (inactive)
same,GI50,LOX IMVI,> 100 µM (inactive)
same,GI50,NCI-H460,> 100 µM (inactive)
same,GI50,SW-620,> 100 µM (inactive)
same,GI50,NCI-H23,> 100 µM (inactive)
same,GI50,OVCAR-5,> 100 µM (inactive)
same,GI50,CCRF-CEM,> 100 µM (inactive)
same,GI50,SK-MEL-28,> 100 µM (inactive)
same,GI50,UACC-257,> 100 µM (inactive)
same,GI50,HOP-62,> 100 µM (inactive)
same,GI50,HT-29,> 100 µM (inactive)
same,GI50,SNB-19,> 100 µM (inactive)
same,GI50,UO-31,> 100 µM (inactive)
same,GI50,Hs-578T,> 100 µM (inactive)
same,GI50,K562,> 100 µM (inactive)
same,GI50,SF-268,> 100 µM (inactive)
same,GI50,HCC 2998,> 100 µM (inactive)
same,GI50,T47D,> 100 µM (inactive)
same,GI50,HL-60,> 100 µM (inactive)
same,GI50,M14,> 100 µM (inactive)
same,GI50,U-251,> 100 µM (inactive)
same,GI50,KM12,> 100 µM (inactive)
same,GI50,NCI/ADR-RES,> 100 µM (inactive)
same,GI50,SR,> 100 µM (inactive)
same,GI50,ACHN,> 100 µM (inactive)
same,GI50,786-0,> 100 µM (inactive)
same,GI50,Malme-3M,> 100 µM (inactive)
same,GI50,MDA-N,> 100 µM (inactive)
same,GI50,OVCAR-4,> 100 µM (inactive)
same,GI50,SK-MEL-2,> 100 µM (inactive)
same,GI50,RPMI-8226,> 100 µM (inactive)
same,GI50,DU-145,> 100 µM (inactive)
same,GI50,PC-3,> 100 µM (inactive)
same,GI50,SK-OV-3,> 100 µM (inactive)
same,GI50,A498,> 100 µM (inactive)
same,GI50,A549,> 100 µM (inactive)
same,GI50,CAKI-1,> 100 µM (inactive)
same,GI50,SNB-75,> 100 µM (inactive)
same,GI50,SF-539,> 100 µM (inactive)
same,GI50,OVCAR-8,> 100 µM (inactive)
same,GI50,SK-MEL-5,> 100 µM (inactive)
same,GI50,HCT-116,> 100 µM (inactive)
same,GI50,MDA-MB-231,> 100 µM (inactive)
same,GI50,HOP-92,> 100 µM (inactive)
same,GI50,RXF 393,> 100 µM (inactive)
same,GI50,UACC-62,> 100 µM (inactive)
same,GI50,SF-295,> 100 µM (inactive)
same,GI50,EKVX,> 100 µM (inactive)
same,GI50,SN12C,> 100 µM (inactive)
same,GI50,NCI-H226,> 100 µM (inactive)
CN(C)c1ccc(/C=c2/sc3nc(=O)c(-c4ccccc4NC(=O)C(F)(F)F)nn3c2=O)cc1,GI50,LXFL 529,> 100 µM (inactive)
same,GI50,MOLT-4,> 100 µM (inactive)
same,GI50,NCI-H522,> 100 µM (inactive)
same,GI50,COLO 205,98.6 µM (inactive)
same,GI50,TK-10,> 100 µM (inactive)
same,GI50,OVCAR-3,> 100 µM (inactive)
same,GI50,IGROV-1,> 100 µM (inactive)
same,GI50,LOX IMVI,> 100 µM (inactive)
same,GI50,NCI-H460,> 100 µM (inactive)
same,GI50,SW-620,> 100 µM (inactive)
same,GI50,NCI-H23,67.6 µM (inactive)
same,GI50,OVCAR-5,> 100 µM (inactive)
same,GI50,CCRF-CEM,> 100 µM (inactive)
same,GI50,SK-MEL-28,> 100 µM (inactive)
same,GI50,HOP-62,> 100 µM (inactive)
same,GI50,HT-29,> 100 µM (inactive)
same,GI50,DMS-273,> 100 µM (inactive)
same,GI50,SNB-19,> 100 µM (inactive)
same,GI50,UO-31,50 µM (inactive)
same,GI50,K562,> 100 µM (inactive)
same,GI50,SF-268,> 100 µM (inactive)
same,GI50,HCC 2998,> 100 µM (inactive)
same,GI50,M19-MEL,> 100 µM (inactive)
same,GI50,XF498,> 100 µM (inactive)
same,GI50,M14,> 100 µM (inactive)
same,GI50,U-251,53.3 µM (inactive)
same,GI50,KM12,> 100 µM (inactive)
same,GI50,SR,93.8 µM (inactive)
same,GI50,ACHN,> 100 µM (inactive)
same,GI50,786-0,> 100 µM (inactive)
same,GI50,Malme-3M,> 100 µM (inactive)
same,GI50,OVCAR-4,> 100 µM (inactive)
same,GI50,SK-MEL-2,> 100 µM (inactive)
same,GI50,SK-OV-3,> 100 µM (inactive)
same,GI50,SNB-78,> 100 µM (inactive)
same,GI50,A549,> 100 µM (inactive)
same,GI50,CAKI-1,> 100 µM (inactive)
same,GI50,SNB-75,> 100 µM (inactive)
same,GI50,SF-539,> 100 µM (inactive)
same,GI50,DMS-114,20.6 µM (inactive)
same,GI50,OVCAR-8,> 100 µM (inactive)
same,GI50,SK-MEL-5,> 100 µM (inactive)
same,GI50,HOP-92,77.4 µM (inactive)
same,GI50,RXF 393,> 100 µM (inactive)
same,GI50,UACC-62,> 100 µM (inactive)
same,GI50,SF-295,> 100 µM (inactive)
same,GI50,DLD-1,> 100 µM (inactive)
same,GI50,EKVX,> 100 µM (inactive)
same,GI50,SN12C,> 100 µM (inactive)
same,GI50,NCI-H226,26.4 µM (inactive)
